According to US20100210616A1, “METAL COMPLEXES INCORPORATED WITHIN BIODEGRADABLE NANOPARTICLES AND THEIR USE” (THE UNIVERSITY OF AKRON, priority 2007, published 2010):

Experiments:
[1] = test system: J53 containing the silver resistance plasmid pMG101; experiment: microbe, parasite or virus in culture; format: cell-based, E. coli; details: Escherichia coli
M. tuberculosis = experiment: MIC against M. tuberculosis; format: cell-based; details: Mycobacterium tuberculosis
[2] = test system: P. aeruginosa (PAO1, PAM57-15 and PAJG3), B. cepacia (PC783), B. multivorans (HI2229), B. cenocepacia (J2315), B. dolosa, M. tuberculosis and control E. coli …; experiment: MIC testing against panel of bacterial strains; format: cell-based; details: prior to loading in nanoparticles; for MIC range: panel of strains
[3] = MIC testing against panel of bacterial strains; format: cell-based; details: panel of strains; prior to loading in nanoparticles
[4] = test system: silver sensitive E. coli J53; experiment: MIC against silver sensitive E. coli J53; format: cell-based; details: Escherichia coli

With `CCCCCCN1C(Cl)=C(Cl)N(C)[CH]1[Ag][O]C(C)=O` (stereo not drawn) [compound 9] as the compound, how does the MIC [1] read?
Its MIC is over 10 µg/mL.

And the MIC (M. tuberculosis)?
Its MIC is 16000 µg/mL.

And the MIC range [2]?
Its MIC range is 1 to 2 µg/mL.

And the “antimicrobial effectiveness in MIC testing versus other more water soluble silver metal complexes” value [2]?
The value was “more effective”.

And the MIC90 [3]?
The MIC90 was 1 µg/mL.

And the MIC [4]?
The MIC was 1 µg/mL.

With `CC(=O)[O][Ag][CH]1N(C)c2c(n(C)c(=O)n(Cc3ccc4ccccc4c3)c2=O)N1C` (stereo not drawn) [compound 13] as the compound, how does the MIC [1] read?
Its MIC is over 10 µg/mL.

What about the MIC (M. tuberculosis) of the same compound?
The MIC was 16000 µg/mL.

And the MIC range [2]?
Its MIC range is 0.8 to 2 µg/mL.

And the “antimicrobial effectiveness in MIC testing versus other more water soluble silver metal complexes” value [2]?
The value was “more effective”.

What about the MIC90 [3] of the same compound?
The MIC90 was 0.8 µg/mL.

What about the MIC [4] of the same compound?
Its MIC is 1 µg/mL.
